# The source made the active and inactive calls. The rule behind the calls is not given here.
# Experiments:
# [1] = molecular target: T1, N-formyl peptide receptor 2 (Homo sapiens, UniProt P25090); assay: Agonist activity at ALX/FPR2 in human THP1 cells harboring NF-kB-Luc assessed as inhibition of LPS-induced NFkB signalling activation by measuring reduction in IL-12p70 secretion pretreated for 30 mins followed by LPS stimulation for 24 hrs by electrochemiluminescence assay; type: cell-based; conditions: read-out: IC50
# T1 sequence (P25090 whole entry): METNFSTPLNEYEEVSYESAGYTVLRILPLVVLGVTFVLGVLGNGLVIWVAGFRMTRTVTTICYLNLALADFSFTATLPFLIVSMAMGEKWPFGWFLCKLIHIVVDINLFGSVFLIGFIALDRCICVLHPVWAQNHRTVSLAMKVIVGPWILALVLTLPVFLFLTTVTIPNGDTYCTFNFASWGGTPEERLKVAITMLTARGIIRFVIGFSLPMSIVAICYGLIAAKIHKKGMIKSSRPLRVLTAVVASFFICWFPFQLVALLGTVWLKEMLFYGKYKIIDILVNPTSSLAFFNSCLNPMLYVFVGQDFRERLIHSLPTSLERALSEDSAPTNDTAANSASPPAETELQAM
# [2] = molecular target: T2, N-formyl peptide receptor 2 (Homo sapiens) (UniProt P25090); assay: Agonist activity at ALX/FPR2 in human THP1 cells harboring NF-kB-Luc assessed as inhibition of LPS-induced NFkB signalling activation by measuring NF-kB activation level at 10^-11 M pretreated for 30 mins followed by LPS stimulation for 24 hrs by luciferase reporter gene assay; type: cell-based; set-up: scale not given: the % may be the effect or the level left
# T2 sequence (whole entry): T1 sequence (P25090 whole entry)
# [3] = molecular target: T2, N-formyl peptide receptor 2 (Homo sapiens); assay: Agonist activity at ALX/FPR2 (unknown origin) expressed in HEK293 cells co-expressing Galphaq assessed as induction of intracellular calcium accumulation at 0.01 nM to 100 nM by Fluo-4 dye based fluorescence spectrophotometric assay; type: functional, cell-based
# HEK293 = assay: Induction of intracellular calcium accumulation in HEK293 cells at 0.01 nM to 100 nM by Fluo-4 dye based fluorescence spectrophotometric assay; type: functional, cell-based; conditions: Homo sapiens
# [4] = molecular target: T1, N-formyl peptide receptor 2; assay: Agonist activity at ALX/FPR2 in human THP1 cells harboring NF-kB-Luc assessed as inhibition of LPS-induced NFkB signalling activation by measuring reduction in TNFalpha secretion pretreated for 30 mins followed by LPS stimulation for 24 hrs by electrochemiluminescence assay; type: cell-based; conditions: read-out: IC50
# [5] = molecular target: T1, N-formyl peptide receptor 2; assay: Agonist activity at ALX/FPR2 in human THP1 cells harboring NF-kB-Luc assessed as inhibition of LPS-induced NFkB signalling activation by measuring reduction in IFNgamma secretion pretreated for 30 mins followed by LPS stimulation for 24 hrs by electrochemiluminescence assay; type: cell-based; conditions: read-out: IC50
# [6] = molecular target: T2, N-formyl peptide receptor 2 (Homo sapiens); assay: Agonist activity at ALX/FPR2 in human THP1 cells harboring NF-kB-Luc assessed as inhibition of LPS-induced NFkB signalling activation by measuring IL-12p70 secretion at 10^-11 M pretreated for 30 mins followed by LPS stimulation for 24 hrs by electrochemiluminescence assay; type: cell-based; set-up: scale not given: the % may be the effect or the level left
# [7] = molecular target: T2, N-formyl peptide receptor 2 (Homo sapiens); assay: Agonist activity at ALX/FPR2 in human THP1 cells harboring NF-kB-Luc assessed as inhibition of LPS-induced NFkB signalling activation by measuring IL-1beta secretion at 10^-11 M pretreated for 30 mins followed by LPS stimulation for 24 hrs by electrochemiluminescence assay; type: cell-based; set-up: scale not given: the % may be the effect or the level left
# [8] = molecular target: T1, N-formyl peptide receptor 2; assay: Agonist activity at ALX/FPR2 in human THP1 cells harboring NF-kB-Luc assessed as inhibition of LPS-induced NFkB signalling activation by measuring reduction in IL-6 secretion pretreated for 30 mins followed by LPS stimulation for 24 hrs by electrochemiluminescence assay; type: cell-based; conditions: read-out: IC50
# [9] = molecular target: T2, N-formyl peptide receptor 2 (Homo sapiens); assay: Agonist activity at ALX/FPR2 in human THP1 cells harboring NF-kB-Luc assessed as inhibition of LPS-induced NFkB signalling activation by measuring NF-kB activation level at 10^-8 M pretreated for 30 mins followed by LPS stimulation for 24 hrs by luciferase reporter gene assay; type: cell-based; set-up: scale not given: the % may be the effect or the level left
# [10] = molecular target: T2, N-formyl peptide receptor 2 (Homo sapiens); assay: Agonist activity at ALX/FPR2 in human THP1 cells harboring NF-kB-Luc assessed as inhibition of LPS-induced NFkB signalling activation by measuring IFNgamma secretion at 10^-9 M pretreated for 30 mins followed by LPS stimulation for 24 hrs by electrochemiluminescence assay; type: cell-based; set-up: scale not given: the % may be the effect or the level left
# Mus musculus [11] = assay: (§1) Anti-inflammatory activity in zymosan-induced C57BL/6J mouse peritonitis model assessed as reduction in total cell count in peritoneal cavity at 43 ng, ip pretreated for 30 mins followed by zymosan treatment and redosing of test compound at 1 hr post zymosan addition and measured at 24 hrs post zymosan addition by flow cytometry relative to basal level (reference value: 14); type: functional
# Homo sapiens [12] = organism: Homo sapiens; assay: Activation of Luc-fused NFkB (unknown origin) expressed in non-stimulated human THP1 cells assessed as relative luminescence unit at 10^-12 M after 24 hrs by luciferase reporter gene assay (reference value: 100%); type: cell-based
# THP-1 [13] = assay: Cytotoxicity against human THP1 cells harboring NFkB-Luc assessed as LDH release at 10'8 M after 24 hrs by spectrophotometric method relative to control; type: cell-based; conditions: thp-1, 24 h
# THP-1 [14] = assay: Cytotoxicity against human THP1 cells harboring NFkB-Luc assessed as LDH release at 10'10 M after 24 hrs by spectrophotometric method relative to control; type: cell-based; conditions: thp-1, 24 h
# Homo sapiens [15] = organism: Homo sapiens; assay: Activation of Luc-fused NFkB (unknown origin) expressed in non-stimulated human THP1 cells assessed as relative luminescence unit at 10^-11 M after 24 hrs by luciferase reporter gene assay (reference value: 100%); type: cell-based
# THP-1 [16] = assay: Cytotoxicity against human THP1 cells harboring NFkB-Luc assessed as LDH release at 10'11 M after 24 hrs by spectrophotometric method relative to control; type: cell-based; conditions: thp-1, 24 h
# Homo sapiens [17] = organism: Homo sapiens; assay: Activation of Luc-fused NFkB (unknown origin) expressed in non-stimulated human THP1 cells assessed as relative luminescence unit at 10^-7 M after 24 hrs by luciferase reporter gene assay (reference value: 100%); type: cell-based
# Homo sapiens [18] = organism: Homo sapiens; assay: Activation of Luc-fused NFkB (unknown origin) expressed in non-stimulated human THP1 cells assessed as relative luminescence unit at 10^-6 M after 24 hrs by luciferase reporter gene assay (reference value: 100%); type: cell-based
# THP-1 [19] = assay: Cytotoxicity against human THP1 cells harboring NFkB-Luc assessed as LDH release at 10'9 M after 24 hrs by spectrophotometric method relative to control; type: cell-based; conditions: thp-1, 24 h
# Mus musculus [20] = assay: as §1, with “as” for “as reduction in”, “cytometry” for “cytometry relative to basal level”, “100%)” for “14)”; type: functional
# Mus musculus [21] = assay: as §1, with “PMN leukocytes level” for “reduction in total cell count”, “cytometry” for “cytometry relative to basal level”, “100%)” for “14)”; type: functional
# THP-1 [22] = assay: Cytotoxicity against human THP1 cells harboring NFkB-Luc assessed as LDH release at 10'7 M after 24 hrs by spectrophotometric method relative to control; type: cell-based; conditions: thp-1, 24 h
# THP-1 [23] = assay: Cytotoxicity against human THP1 cells harboring NFkB-Luc assessed as LDH release at 10'12 M after 24 hrs by spectrophotometric method relative to control; type: cell-based; conditions: thp-1, 24 h
# THP-1 [24] = assay: Cytotoxicity against human THP1 cells harboring NFkB-Luc assessed as LDH release at 10'6 M after 24 hrs by spectrophotometric method relative to control; type: cell-based; conditions: thp-1, 24 h
# Homo sapiens [25] = organism: Homo sapiens; assay: Activation of Luc-fused NFkB (unknown origin) expressed in non-stimulated human THP1 cells assessed as relative luminescence unit at 10^-8 M after 24 hrs by luciferase reporter gene assay (reference value: 100%); type: cell-based
IC50 [1],Activity [2],Activity [3],IC50 [4],IC50 [5],Activity [6],Activity [7],IC50 [8],Activity [9],Activity [10],SMILES,Activity (HEK293),fold change (FC) (Mus musculus [11]),Activity (Homo sapiens [12]),fold change (FC) (THP-1 [13]),fold change (FC) (THP-1 [14]),Activity (Homo sapiens [15]),fold change (FC) (THP-1 [16]),Activity (Homo sapiens [17]),Activity (Homo sapiens [18]),fold change (FC) (THP-1 [19]),other results
11.8 nM,95.5%,Active,7.7 nM,22.2 nM,25.7%,6.6%,1.7 nM,83.3%,36.1%,CCCCC[C@H](O)/C=C/C=C\C=C\C=C\[C@@H](O)[C@@H](O)CCCC(=O)O [LIPOXIN A4],inactive,–,–,–,–,–,–,–,–,–,–
1 nM,83.4%,Active,4.1 nM,0.7 nM,65.1%,50.3%,12 nM,80.4%,68.4%,CCCCC[C@H](O)c1nc(-c2ccccc2)n(-c2ccccc2)c1/C=C/[C@@H](O)[C@@H](O)CCCC(=O)OC,inactive,3,1.3%,1,0.6,1.4%,0.6,0.9%,1.3%,0.8,Emax (Mus musculus [20]): 19.5%; Emax (Mus musculus [21]): 18.2%; fold change (FC) (THP-1 [22]): 1.4; fold change (FC) (THP-1 [23]): 0.6; fold change (FC) (THP-1 [24]): 1.6; Activity (Homo sapiens [25]): 1.2%
10 nM,94.3%,–,7.1 nM,18.5 nM,67.7%,49.6%,0.5 nM,84.4%,71.4%,CCCCC[C@@H](O)c1nc(-c2ccccc2)n(-c2ccccc2)c1/C=C/[C@@H](O)[C@@H](O)CCCC(=O)OC,–,6,1.7%,0.9,0.6,1.5%,0.5,0.8%,1.2%,0.8,Emax (Mus musculus [20]): 42.5%; Emax (Mus musculus [21]): 45.5%; fold change (FC) (THP-1 [22]): 1.1; fold change (FC) (THP-1 [23]): 0.5; fold change (FC) (THP-1 [24]): 1.1; Activity (Homo sapiens [25]): 1.2%

# Source: ChEMBL document CHEMBL4382216, “Asymmetric synthesis and biological evaluation of imidazole- and oxazole-containing synthetic lipoxin A4 mimetics (sLXms)” (Eur J Med Chem, 2019)
